This experiment has as its target RNA polymerase-RNA complex ("cores" with transcriptase activity) (Influenza A virus, UniProt P03428+P03431+P03433). Description: biochemical. Details: species or system Influenza virus A/PR/8/34. As to conditions: for inhibition at 0.05 µM / inhibition at 0.5 µM / inhibition at 5 µM / inhibition at 50 µM: read-out: % Inhibition (inhibition of polymerase by peptides).

Where no end group is shown, it is not given here.

As for `CSCC[C@H](NC(=O)[C@H](CC(N)=O)NC(=O)[C@H](CC(N)=O)NC(=O)[C@@H]1CCCN1C(=O)[C@H](CC(=O)O)NC(=O)CNC(=O)[C@H](CC(N)=O)NC(=O)CNC(=O)[C@H](CC(N)=O)NC(=O)[C@H](CC(C)C)NC(=O)[C@H](C)N)C(=O)N[C@@H](CC(=O)O)C(=O)N[C@@H](CCCCN)C(=O)N[C@@H](C)C(=O)N[C@H](C(=O)N[C@@H](CCCCN)C(=O)N[C@@H](CC(C)C)C(=O)N[C@@H](Cc1ccc(O)cc1)C(=O)O)C(C)C` [Peptide 2], the inhibition at 0.05 µM was -37%, the inhibition at 0.5 µM is -10%, the inhibition at 5 µM is -20% and the inhibition at 50 µM is -13%.

Take `CC[C@H](C)[C@H](NC(=O)[C@H](CCC(N)=O)NC(=O)[C@@H](N)CCC(=O)O)C(=O)N[C@@H](C)C(=O)N[C@@H](CC(=O)O)C(=O)N[C@@H](CO)C(=O)N[C@@H](CCC(N)=O)C(=O)N[C@@H](Cc1c[nH]cn1)C(=O)N[C@@H](CCCNC(=N)N)C(=O)N[C@@H](CO)C(=O)N[C@@H](Cc1c[nH]cn1)C(=O)N[C@@H](CCCNC(=N)N)C(=O)N[C@@H](CCC(N)=O)C(=O)N[C@@H](CCSC)C(=O)N[C@H](C(=O)O)C(C)C` [Peptide 4]: the inhibition at 0.05 µM came out at 38%, the inhibition at 0.5 µM amounted to 22%, the inhibition at 5 µM came to 23% and the inhibition at 50 µM was 32%.

For `CC(C)C[C@H](NC(=O)CNC(=O)[C@H](C)NC(=O)[C@H](CO)NC(=O)[C@H](CO)NC(=O)[C@H](CO)NC(=O)[C@@H]1CCCN1C(=O)[C@H](Cc1c[nH]cn1)NC(=O)[C@@H](NC(=O)CN)[C@@H](C)O)C(=O)N[C@@H](CCCCN)C(=O)N[C@@H](CC(N)=O)C(=O)N[C@@H](CC(=O)O)C(=O)N[C@@H](CC(C)C)C(=O)N[C@@H](CC(C)C)C(=O)N[C@@H](CCC(=O)O)C(=O)N[C@@H](CC(N)=O)C(=O)O` [Peptide 5], the inhibition at 0.05 µM came to 16%, the inhibition at 0.5 µM was 14%, the inhibition at 5 µM was 1% and the inhibition at 50 µM was -30%.

As for `CC[C@H](C)[C@H](NC(=O)[C@H](CCC(N)=O)NC(=O)[C@H](CCC(=O)O)NC(=O)[C@H](CS)NC(=O)[C@@H](NC(=O)[C@H](C)NC(=O)[C@@H](N)CS)[C@@H](C)O)C(=O)N[C@@H](C)C(=O)N[C@@H](CC(=O)O)C(=O)N[C@@H](CO)C(=O)N[C@@H](CCC(N)=O)C(=O)N[C@@H](Cc1c[nH]cn1)C(=O)N[C@@H](CCCNC(=N)N)C(=O)N[C@@H](CO)C(=O)N[C@@H](Cc1c[nH]cn1)C(=O)N[C@@H](CCCNC(=N)N)C(=O)N[C@@H](CCC(N)=O)C(=O)N[C@@H](CCSC)C(=O)N[C@H](C(=O)O)C(C)C` [Peptide 6], the “50% inhibition (concentration, in words)” value is “picomolar range”. Further, the inhibition at 1 µM (1 μM, read-out: % Inhibition (inhibition of polymerase by peptide 6)) was > 100%. Besides, where the note is “10 μM, read-out: % Inhibition (inhibition of polymerase by peptide 6)”, the inhibition at 10 µM stood at 98%. Further, the inhibition at 100 µM (100 μM, read-out: % Inhibition (inhibition of polymerase by peptide 6)) amounted to 81%. Besides, the inhibition at 0.001 µM (.001 μM, read-out: % Inhibition (inhibition of polymerase by peptide 6)) turned out to be 77%. In addition, the inhibition at 0.01 µM (.010 μM, read-out: % Inhibition (inhibition of polymerase by peptide 6)) amounted to 82%. The inhibition at 0.1 µM (.100 μM, read-out: % Inhibition (inhibition of polymerase by peptide 6)) was determined as 99%.

KREITFHGAKEISLS [Peptide 3]: the inhibition at 0.05 µM amounted to 9%, the inhibition at 0.5 µM was determined as 8%, the inhibition at 5 µM is -9% and the inhibition at 50 µM was -30%.

With LTVPSERGLQRRR [Peptide 1], the inhibition at 0.05 µM came out at 3%, the inhibition at 0.5 µM amounted to 2%, the inhibition at 5 µM was 9% and the inhibition at 50 µM stood at 35%.

Usually inhibition stands for the change of the read-out against control, counted positive when it falls.

The record behind these values is US5616327A (SRI International, priority 1994, dated 1997).
